# According to article PMC11201946 (Cancers, 2024):
# “And” between values parts separate entries of the source, which are not always exact repeats. Identical values can stand only once. Like-named read-outs stand apart in the source and are kept apart here.
# Tests used:
# [1] = cited from earlier work
# [2] = cited from earlier work; remark: listed apart in the source
# [3] = design: method as in PMID 32283865; settings: fixed to a literature value; cited from earlier work
# [4] = cited from earlier work; remark: listed apart in the source
# [5] = Figure 1; cited from earlier work
# [6] = Population pharmacokinetic (popPK) model of plasma concentrations in adult patients (OpTAT study)
# Text: Data were collected during the OpTAT study. […] Blood samples were collected from patients during their regular medical visits, with a maximum of eight samples taken per patient.
# The digital monitor allowed us to provide accurate information on treatment implementation (i.e., the extent to which the patient’s dosing history is in line with the prescription—the correct dosing regimen, at the correct time and in the right condition) and temporary or long-term discontinuation of treatment (i.e., when the patient stops taking the treatment prematurely). For the remaining patients, dosing history was reconstructed based on information from the medical consultation notes, assuming steady-state condition if no information was available. Patient demographic and clinical data were extracted from medical records. For all clinical and laboratory data (e.g., body weight, hepatic or renal function), the closest measurement to the blood sample was used. If no measurement was taken within 10 days before or after the sample, then it was considered a missing value. Creatinine clearance (CrCL) was estimated using the Cockcroft–Gault formula [43]. Fat-free mass (FFM) was calculated using the following formula [44]:(1) FFMkg=BW×1−BFPbmi/100 with BW denoting bodyweight in kg and BFPbmi denoting body fat percentage, calculated using the following formula:(2) BFPbmi%=1.20×BMI+0.23×AGE−10.8×SEX−5.4 with BMI representing body mass index, in kg/m^2. SEX = 0 if women and 1 if men and AGE is provided in years.
# The development of the population pharmacokinetic (popPK) model was performed using nonlinear mixed-effect modelling (Nonmem, ICON, Dublin, Ireland, version 7.4.3) and Pearl speaks Nonmem (PsN, version 4.8.0). Pirana (Certara, Radnor, PA, USA, version 2.9.6) was used for the management of runs, R (version 4.0.2), for graphical and statistical analyses.
# A classical stepwise procedure was used to build the model. […] Inter-individual variability (IIV) was successively incorporated into each PK parameter. Different error models, including additive, proportional, and combined error models, were also assessed. Different values retrieved from the literature of absorption rate constants (ka), ranging from 0.4 to 2 h^−1, were evaluated due to insufficient data being collected during the absorption phase. For each patient, the time required to reach maximum concentration (Tmax) was estimated.
# Biologically relevant covariates were introduced into the model through a forward/backward insertion/deletion method. Covariates tested were sex, body weight, body mass index (BMI), body surface area (BSA), age, FFM, CrCL, urea, total bilirubin, alkaline phosphatase (PAL), aspartate aminotransferase (ASAT), alanine aminotransferase (ALAT), concomitant administration of dabrafenib, and food intake. Initially, a univariate analysis was conducted, during which covariates were added one by one to the model. Continuous covariates were centred and normalized to the population median and were added to the model using either linear or allometric relationships, while categorical covariates followed a linear relationship. Missing values were assigned the population median. Subsequently, a multivariate analysis was performed of the identified significant covariates to develop the comprehensive model. Finally, a reductive analysis was performed to retain only the most significant covariates.
# The assumption of steady state for patients without adherence information may have biased the analysis by interpreting low levels as high clearances resulting from missed doses rather than from a covariate effect. To verify this, a sensitivity analysis was conducted of the 11 patients with full adherence information. We assumed that if the significant covariate–parameter relationship persisted, its influence on the pharmacokinetic parameter would be confirmed, whereas, if not, this influence might have been confounded by other factors, including suboptimal adherence.
# [7] = tested on: cytochrome P (CYP) enzymes; design: method as in earlier work; settings: cited from earlier work
# [8] = bootstrap performed on 2000 runs
smiles,measurement,setting,value
CC(=O)Nc1cccc(-n2c(=O)n(C3CC3)c(=O)c3c(Nc4ccc(I)cc4F)n(C)c(=O)c(C)c32)c1 [trametinib],lipophilicity (in words),[1],lipophilic
same,CL in a previous popPK model (first value named),[2],5.83 L/h
same,CL in a previous popPK model (second value named),[2],4.91 L/h
same,peripheral volume of distribution,[2]; ref Balakirouchenane et al. [38],417 L
same,central volume of distribution,[2]; ref Ouellet et al. [37],214 L
same,peripheral volume of distribution,[2]; ref Ouellet et al. [37],568 L
same,ka (absorption rate constant),[3],0.913 h^−1 and 0.913 fixed h^−1
same,Steady-state at day,[4]; Figure 1,15 days
same,excreted in the urine,[4],19%
same,terminal half-life,[4],around 127 h
same,time at which maximum concentration is reached after administration,[4],approximately 1.5 h
same,excreted in the urine,[4]; listed as Trametinib,≤ 19%
same,bioavailability,[4]; oral,72%
same,Most frequent adverse events: Abdominal pain,[5],17%
same,Most frequent adverse events: Arthralgia,[5],26%
same,Most frequent adverse events: Asthenia,[5],15%
same,Most frequent adverse events: Chills,[5],33%
same,Most frequent adverse events: Constipation,[5],13%
same,Most frequent adverse events: Coughing,[5],20%
same,Most frequent adverse events: Cutaneous dryness,[5],13%
same,Most frequent adverse events: Diarrhea,[5],32%
same,Most frequent adverse events: Erythema,[5],10%
same,Most frequent adverse events: Fatigue,[5],38%
same,Most frequent adverse events: Flu infection,[5],11%
same,Most frequent adverse events: Haemorrhages,[5],19%
same,Most frequent adverse events: Headache,[5],33%
same,Most frequent adverse events: Hypertension,[5],19%
same,Most frequent adverse events: Increase in ALAT,[5],14%
same,Most frequent adverse events: Increase in ASAT,[5],13%
same,Most frequent adverse events: Loss of appetite,[5],14%
same,Most frequent adverse events: Muscle cramps,[5],10%
same,Most frequent adverse events: Myalgia,[5],15%
same,Most frequent adverse events: Nausea,[5],38%
same,Most frequent adverse events: Pain in the extremities,[5],12%
same,Most frequent adverse events: Peripheral oedema,[5],16%
same,Most frequent adverse events: Pruritus,[5],10%
same,Most frequent adverse events: Pyrexia,[5],58%
same,Most frequent adverse events: Rash,[5],24%
same,Most frequent adverse events: Rhinopharyngitis,[5],11%
same,Most frequent adverse events: Vomiting,[5],29%
same,Most frequent adverse events: dizziness,[5],11%
same,decrease in CL,[6]; 80-year-old versus 30-year-old patient,40%
same,increase in CL,[6]; FFM of 68 kg compared with population median of 46.35 kg,66%
same,"IIV (CV%) on CL, base model",[6]; base two-compartment model,45%
same,"central volume (V2), base model",[6]; base two-compartment model,102 L
same,"intercompartmental clearance (Q), base model",[6]; base two-compartment model,35.1 L/h
same,"peripheral volume (V3), base model",[6]; base two-compartment model,338 L
same,"IIVCL, Bootstrap Median (95% PI)",[6]; [8],"22 (13, 28) %"
same,"Q, Bootstrap Median (95% PI)",[6]; [8],"28.83 (12.69, 60.68) L·h^−1"
same,"V2, Bootstrap Median (95% PI)",[6]; [8],"101.84 (65.42, 143.40) L"
same,"V3, Bootstrap Median (95% PI)",[6]; [8],"286.48 (104.63, 385.40) L"
same,"θAGE, Bootstrap Median (95% PI)",[6]; [8],−0.66 (−1.25 to −0.20)
same,"θCL, Bootstrap Median (95% PI)",[6]; [8],"3.98 (3.52, 4.45) L·h^−1"
same,"θFFM, Bootstrap Median (95% PI)",[6]; [8],"1.41 (0.92, 1.90)"
same,"σprop, Bootstrap Median (95% PI)",[6]; [8],"20 (16, 24) %"
same,"Tmax, median (min, max) estimated per patient","[6]; both, human, in vivo",1.7 h
same,Tmax,"[6]; both, human, in vivo, Tmax, median (min, max) estimated per patient",1.75 h
same,clearance,"[6]; both, human, plasma, oral",70 mL/min
same,CL variability explained by age,[6]; covariate age,21%
same,increase in CL with coadministration of dabrafenib,"[6]; covariate analysis, RSE = 46%, effect excluded after sensitivity analysis (adherence confounding)",40%
same,CL variability explained by FFM,[6]; covariate fat-free mass,66%
same,"IIVCL (inter-individual variability of CL, CV), Final Model Estimation (RSE %)",[6]; final model,23 (14) %
same,"Q (typical intercompartmental clearance), Final Model Estimation (RSE %)",[6]; final model,29.4 (30) L·h^−1
same,"V2 (typical volume of distribution, central), Final Model Estimation (RSE %)",[6]; final model,108 L and 108 (16) L
same,"V3 (peripheral volume of distribution), Final Model Estimation (RSE %)",[6]; final model,286 L and 286 (25) L
same,"θCL (typical clearance), Final Model Estimation (RSE %)",[6]; final model,3.96 L·h^−1 and 3.96 (6) L·h^−1
same,"σprop (proportional residual error, CV), Final Model Estimation (RSE %)",[6]; final model,20 (10) %
same,"θAGE (effect of age on CL), Final Model Estimation (RSE %)","[6]; final model, AGEmedian = 63 years",−0.69 (32)
same,"θFFM (effect of fat-free mass on CL), Final Model Estimation (RSE %)","[6]; final model, FFMmedian = 46.35 kg",1.41 (17)
same,substrate of cytochrome P (CYP) enzymes,[7],not a substrate
